Where two headings read alike, the source gives them in different places.
Experiments:
[1] = tested on: TNF-α secreted by synoviocyte; assay: Content of TNF-α in culture supernatant of synoviocyte of RA model rats given test compound; format: in vivo; details: rat RA model, dose 30 mg/kg.2d; normal control 0.38 ± 0.027, NaCl 0.74 ± 0.098
Method in brief: (§1)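 Rat RA model; dosing 30 mg/kg.2d; normal and NaCl control groups. Synoviocyte culture supernatant collected; TNF-α and PGE2 measured by one established method, IL-1β by a separate method.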

[2] = tested on: IL-1β secreted by synoviocyte; assay: Content of IL-1β in culture supernatant of synoviocyte of RA model rats given test compound; format: in vivo; details: rat RA model, dose 30 mg/kg.2d; normal control 0.16 ± 0.034, NaCl 0.49 ± 0.136
Method in brief: as §1

[3] = tested on: PGE2 secreted by synoviocyte; assay: Content of PGE2 in culture supernatant of synoviocyte of RA model rats given test compound; format: in vivo; details: rat RA model, dose 30 mg/kg.2d; normal control 8.34 ± 1.29, NaCl 32.44 ± 10.32
Method in brief: as §1

cancer stem cells = assay: Survival rate of cancer stem cells after test compound is added (flow cytometry, Annexin V-FITC/PI, clinical specimen); format: cell-based, patient; details: Homo sapiens, 18 h
Method in brief: (§2)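 Mononuclear cells from fresh or cryopreserved clinical samples, isolated by Ficoll gradient and held in serum-free IMDM (1×10^6/mL), received compound for 18 h. After labelling with marker antibodies (CD34+CD38+ for AML), Annexin V-FITC and PI staining was analysed by flow cytometry.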

cancer cells = assay: Survival rate of cancer cells after test compound is added (flow cytometry, Annexin V-FITC/PI, clinical specimen); format: cell-based, patient; details: Homo sapiens, 18 h, read-out: Survival rate (%) All cells (Stem cells and ordinary cells)
Method in brief: as §2

[4] = Head and neck squamous cell carcinomas

With `C=C1C(=O)O[C@@H]2[C@@H]3[C@@H](CC[C@@]3(C)O)[C@](C)(O)CC[C@@H]12` [Compound 49] as the compound, how does the “Content of TNF-α in culture supernatant of synoviocyte (x ± s)” value [1] read?
Its value is 0.65 ± 0.046 ng/mL.

What about the “Content of IL-1β in culture supernatant of synoviocyte (x ± s)” value [2] of the same compound?
Its value is 0.39 ± 0.075 ng/mL.

And the “Content of PGE2 in culture supernatant of synoviocyte (x ± s)” value [3]?
Its value is 24.25 ± 1.94 ng/mL.

What about the viability at 10 µM (cancer stem cells; AML) of the same compound?
The viability at 10 µM was 85%.

And the viability at 20 µM (cancer stem cells; AML)?
Its viability at 20 µM is 77%.

What about the viability at 10 µM (cancer stem cells; Brain glioma) of the same compound?
The viability at 10 µM was 83%.

And the viability at 20 µM (cancer stem cells; Brain glioma)?
Its viability at 20 µM is 79%.

What about the viability at 10 µM (cancer stem cells; Brain tumor) of the same compound?
The viability at 10 µM was 83%.

What about the viability at 20 µM (cancer stem cells; Brain tumor) of the same compound?
The viability at 20 µM was 79%.

And the viability at 10 µM (cancer stem cells; Breast cancer)?
The viability at 10 µM was 82%.

And the viability at 20 µM (cancer stem cells; Breast cancer)?
Its viability at 20 µM is 79%.

And the viability at 10 µM (cancer stem cells; CLL)?
The viability at 10 µM was 82%.

What about the viability at 20 µM (cancer stem cells; CLL) of the same compound?
The viability at 20 µM was 74%.

And the viability at 10 µM (cancer stem cells; CML)?
The viability at 10 µM was 87%.

And the viability at 20 µM (cancer stem cells; CML)?
Its viability at 20 µM is 76%.

And the viability at 10 µM (cancer stem cells; Children hepatoblastoma)?
The viability at 10 µM was 86%.

What about the viability at 20 µM (cancer stem cells; Children hepatoblastoma) of the same compound?
The viability at 20 µM was 78%.

And the viability at 10 µM (cancer stem cells; Colon adenocarcinoma)?
The viability at 10 µM was 85%.

What about the viability at 20 µM (cancer stem cells; Colon adenocarcinoma) of the same compound?
Its viability at 20 µM is 79%.

What about the viability at 10 µM (cancer stem cells; Colorectal cancer) of the same compound?
The viability at 10 µM was 82%.

What about the viability at 20 µM (cancer stem cells; Colorectal cancer) of the same compound?
Its viability at 20 µM is 74%.

And the viability at 10 µM (cancer stem cells; Gastric cancer)?
Its viability at 10 µM is 85%.

And the viability at 20 µM (cancer stem cells; Gastric cancer)?
The viability at 20 µM was 77%.

What about the viability at 10 µM (cancer stem cells; Gastrointestinal tumor) of the same compound?
The viability at 10 µM was 85%.

What about the viability at 20 µM (cancer stem cells; Gastrointestinal tumor) of the same compound?
The viability at 20 µM was 77%.

What about the viability at 10 µM (cancer stem cells; Glioma) of the same compound?
The viability at 10 µM was 82%.

And the viability at 20 µM (cancer stem cells; Glioma)?
The viability at 20 µM was 76%.

And the viability at 10 µM (cancer stem cells; [4])?
The viability at 10 µM was 82%.

And the viability at 20 µM (cancer stem cells; [4])?
Its viability at 20 µM is 73%.

And the viability at 10 µM (cancer stem cells; Laryngeal cancer)?
The viability at 10 µM was 84%.

What about the viability at 20 µM (cancer stem cells; Laryngeal cancer) of the same compound?
The viability at 20 µM was 78%.

And the viability at 10 µM (cancer stem cells; Liver cancer)?
The viability at 10 µM was 85%.

What about the viability at 20 µM (cancer stem cells; Liver cancer) of the same compound?
Its viability at 20 µM is 79%.

What about the viability at 10 µM (cancer stem cells; Lung adenocarcinoma) of the same compound?
The viability at 10 µM was 84%.

What about the viability at 20 µM (cancer stem cells; Lung adenocarcinoma) of the same compound?
The viability at 20 µM was 78%.

What about the viability at 10 µM (cancer stem cells; Lung cancer) of the same compound?
The viability at 10 µM was 79%.

What about the viability at 20 µM (cancer stem cells; Lung cancer) of the same compound?
Its viability at 20 µM is 73%.

And the viability at 10 µM (cancer stem cells; Malignant melanoma)?
Its viability at 10 µM is 82%.

What about the viability at 20 µM (cancer stem cells; Malignant melanoma) of the same compound?
Its viability at 20 µM is 79%.

What about the viability at 10 µM (cancer stem cells; Nasopharynx cancer) of the same compound?
Its viability at 10 µM is 84%.

What about the viability at 20 µM (cancer stem cells; Nasopharynx cancer) of the same compound?
Its viability at 20 µM is 77%.

And the viability at 10 µM (cancer stem cells; Ovarian cancer)?
The viability at 10 µM was 86%.

What about the viability at 20 µM (cancer stem cells; Ovarian cancer) of the same compound?
The viability at 20 µM was 76%.

What about the viability at 10 µM (cancer stem cells; Pancreatic cancer) of the same compound?
The viability at 10 µM was 81%.

What about the viability at 20 µM (cancer stem cells; Pancreatic cancer) of the same compound?
The viability at 20 µM was 75%.

And the viability at 10 µM (cancer stem cells; Prostate cancer)?
Its viability at 10 µM is 85%.

And the viability at 20 µM (cancer stem cells; Prostate cancer)?
Its viability at 20 µM is 77%.

What about the viability at 10 µM (cancer stem cells; Retinoblastoma) of the same compound?
Its viability at 10 µM is 85%.

What about the viability at 20 µM (cancer stem cells; Retinoblastoma) of the same compound?
The viability at 20 µM was 77%.

And the viability at 10 µM (cancer stem cells; Skin cancer)?
The viability at 10 µM was 85%.

And the viability at 20 µM (cancer stem cells; Skin cancer)?
Its viability at 20 µM is 79%.

What about the viability at 10 µM (cancer cells; AML) of the same compound?
Its viability at 10 µM is 92%.

And the viability at 20 µM (cancer cells; AML)?
The viability at 20 µM was 89%.

And the viability at 10 µM (cancer cells; Brain glioma)?
The viability at 10 µM was 88%.

What about the viability at 20 µM (cancer cells; Brain glioma) of the same compound?
The viability at 20 µM was 87%.

And the viability at 10 µM (cancer cells; Brain tumor)?
The viability at 10 µM was 88%.

What about the viability at 20 µM (cancer cells; Brain tumor) of the same compound?
Its viability at 20 µM is 87%.

And the viability at 10 µM (cancer cells; Breast cancer)?
The viability at 10 µM was 89%.

What about the viability at 20 µM (cancer cells; Breast cancer) of the same compound?
Its viability at 20 µM is 87%.

What about the viability at 10 µM (cancer cells; CLL) of the same compound?
Its viability at 10 µM is 91%.

And the viability at 20 µM (cancer cells; CLL)?
The viability at 20 µM was 85%.

What about the viability at 10 µM (cancer cells; CML) of the same compound?
Its viability at 10 µM is 90%.

And the viability at 20 µM (cancer cells; CML)?
The viability at 20 µM was 86%.

What about the viability at 10 µM (cancer cells; Children hepatoblastoma) of the same compound?
Its viability at 10 µM is 93%.

What about the viability at 20 µM (cancer cells; Children hepatoblastoma) of the same compound?
The viability at 20 µM was 92%.

And the viability at 10 µM (cancer cells; Colon adenocarcinoma)?
The viability at 10 µM was 93%.

And the viability at 20 µM (cancer cells; Colon adenocarcinoma)?
Its viability at 20 µM is 86%.

And the viability at 10 µM (cancer cells; Colorectal cancer)?
Its viability at 10 µM is 88%.

What about the viability at 20 µM (cancer cells; Colorectal cancer) of the same compound?
Its viability at 20 µM is 85%.

What about the viability at 10 µM (cancer cells; Gastric cancer) of the same compound?
The viability at 10 µM was 92%.

And the viability at 20 µM (cancer cells; Gastric cancer)?
Its viability at 20 µM is 89%.

And the viability at 10 µM (cancer cells; Gastrointestinal tumor)?
Its viability at 10 µM is 92%.

And the viability at 20 µM (cancer cells; Gastrointestinal tumor)?
The viability at 20 µM was 89%.

What about the viability at 10 µM (cancer cells; Glioma) of the same compound?
Its viability at 10 µM is 88%.

And the viability at 20 µM (cancer cells; Glioma)?
Its viability at 20 µM is 89%.

What about the viability at 10 µM (cancer cells; [4]) of the same compound?
The viability at 10 µM was 91%.

What about the viability at 20 µM (cancer cells; [4]) of the same compound?
Its viability at 20 µM is 87%.

And the viability at 10 µM (cancer cells; Laryngeal cancer)?
The viability at 10 µM was 91%.

And the viability at 20 µM (cancer cells; Laryngeal cancer)?
The viability at 20 µM was 88%.

And the viability at 10 µM (cancer cells; Liver cancer)?
Its viability at 10 µM is 93%.

What about the viability at 20 µM (cancer cells; Liver cancer) of the same compound?
The viability at 20 µM was 86%.

What about the viability at 10 µM (cancer cells; Lung adenocarcinoma) of the same compound?
Its viability at 10 µM is 91%.

What about the viability at 20 µM (cancer cells; Lung adenocarcinoma) of the same compound?
Its viability at 20 µM is 88%.

What about the viability at 10 µM (cancer cells; Lung cancer) of the same compound?
Its viability at 10 µM is 88%.

What about the viability at 20 µM (cancer cells; Lung cancer) of the same compound?
The viability at 20 µM was 82%.

What about the viability at 10 µM (cancer cells; Malignant melanoma) of the same compound?
The viability at 10 µM was 88%.

What about the viability at 20 µM (cancer cells; Malignant melanoma) of the same compound?
Its viability at 20 µM is 87%.

What about the viability at 10 µM (cancer cells; Nasopharynx cancer) of the same compound?
Its viability at 10 µM is 93%.

What about the viability at 20 µM (cancer cells; Nasopharynx cancer) of the same compound?
The viability at 20 µM was 86%.

What about the viability at 10 µM (cancer cells; Ovarian cancer) of the same compound?
Its viability at 10 µM is 93%.

What about the viability at 20 µM (cancer cells; Ovarian cancer) of the same compound?
The viability at 20 µM was 88%.

And the viability at 10 µM (cancer cells; Pancreatic cancer)?
Its viability at 10 µM is 87%.

And the viability at 20 µM (cancer cells; Pancreatic cancer)?
The viability at 20 µM was 83%.

What about the viability at 10 µM (cancer cells; Prostate cancer) of the same compound?
The viability at 10 µM was 92%.

And the viability at 20 µM (cancer cells; Prostate cancer)?
Its viability at 20 µM is 89%.

And the viability at 10 µM (cancer cells; Retinoblastoma)?
The viability at 10 µM was 92%.

And the viability at 20 µM (cancer cells; Retinoblastoma)?
Its viability at 20 µM is 89%.

What about the viability at 10 µM (cancer cells; Skin cancer) of the same compound?
Its viability at 10 µM is 93%.

And the viability at 20 µM (cancer cells; Skin cancer)?
The viability at 20 µM was 86%.
